Read-outs that look alike come from different tables or passages of the source. Where no end group is shown, it is not given here.
Key:
Erbin-PDZ [1] = conditions: ERBB2 C-terminal tail of 9 residues; cited from earlier work
Text: Again, no class II or III peptides were able to bind PSD95-PDZ3 either. […] Instead, the striking resu ...

PSD95-PDZ3 [2] = target: T1, PSD95-PDZ3 (Homo sapiens, UniProt P78352); experiment: ITC titration of PSD95-PDZ3 with peptides; type: binding; set-up: key to interaction or not with PSD95 PDZ3: The tick (✓) and the cross (✕) signs mean whether there is interaction or not, respectively, as demonstrated in this study; The tick (✓) and the cross (✕) signs mean whether there is interaction or not, respectively, as demonstrated in this study; conditions: for Kd: ITC, 25 °C, 50 mM potassium phosphate pH 7.5, protein 70 μM in cell, peptide 900 μM, single-site model, n 0.8 to 1.1; for interaction or not with PSD95 PDZ3: Figure 1 summary, ITC, and DSC where ITC showed no binding
T1 construct: PSD95-PDZ3 (residues 302–415, according to PSD95 numbering); made in house; host or cells: Escherichia coli BL21-DE3
T1 sequence (P78352 302-415): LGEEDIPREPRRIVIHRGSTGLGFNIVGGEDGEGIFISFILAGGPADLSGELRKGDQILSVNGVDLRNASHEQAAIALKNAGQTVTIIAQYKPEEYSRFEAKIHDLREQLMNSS
Experimental: (§1) The DNA encoding the sequences of PSD95-PDZ2 (residues 155–249, according to PSD95 numbering), PSD95-PDZ3 (residues 302–415, according to PSD95 numbering), nNOS-PDZ (residues 1–127, in nNOS numbering) and Erbin-PDZ (given generously by Prof. Sachdev Sidhu, University of Toronto, Toronto, ON, Canada), were sub-cloned into pBAT4 vector (EMBL Core Purification Facility, Heidelberg, Germany) and expressed in Escherichia coli BL21-DE3 cells. Protein purification was carried out as previously described. Briefly, cultures were over-expressed overnight and centrifuged. After cell lysis with a French press, the lysates were centrifuged and the pH of the supernatant was lowered down to a pH of 3 with diluted HCl. Upon centrifugation, ammonium sulfate was added to the samples, which were then injected into an AKTA FPLC for preparative size exclusion chromatography. Roughly 15 milligrams of protein per liter of LB culture were obtained and purity was determined by SDS-Page electrophoresis. MALDI-TOF spectrometry, performed at the Scientific Instrumentation Services (CIC) of the University of Granada (Granada, Spain), confirmed the molecular mass for each PDZ domain. Extinction coefficients, determined as described, were used to calculate sample concentration. Experimental samples were always prepared by extensive dialysis against 50 mM potassium phosphate buffer at a pH of 7.5 and 4 °C.
(§2) Calorimetric titrations of the PDZ domains with the peptides were undertaken at 25 °C on an ITC-200 titration microcalorimeter (Microcal Inc., Northampton, MA, USA), as previously described. Protein concentrations in the cell were routinely 70 μM and peptides solutions were prepared using the dialysis buffer to have a final concentration of 900 μM. Titrations were all made by injecting 2 μL volumes of ligand solution, with a final number of 19 injections per experiment. As a control and reference, independent experiments were carried out with only buffer in the calorimeter cell with the same ligand solutions to determine the corresponding heat dilution. The dilution isotherms were then subtracted from that obtained for protein titration. The binding stoichiometry, n, the dissociation constant, Kd and the corresponding enthalpy change, ΔH, were determined by fitting the resulting titration isotherm to a model considering a single ligand binding site using ORIGIN 7.0 (OriginLab Corporation, Northampton, MA, USA, 2002).
(§3) We performed ITC experiments at 25 °C between all the selected PDZ domains and peptides. For the sake of comparison, the experiments were all conducted in the same buffer conditions, 50 mM potassium phosphate and pH of 7.5, which presents the advantage of having an insignificant protonation heat, meaning that the experimentally determined enthalpy changes should just account for the net heat of reaction. A table summarizing all interactions is shown in Figure 1, whilst we have just included the successful experiments graphs, both in Figure 2 and in the SI (Figure S1).

Erbin-PDZ [3] = target: T2, Erbin-PDZ (Homo sapiens, UniProt Q96RT1); experiment: ITC titration of Erbin-PDZ with peptides; type: binding; set-up: key to interaction or not with Erbin PDZ: The tick (✓) and the cross (✕) signs mean whether there is interaction or not, respectively, as demonstrated in this study; The tick (✓) and the cross (✕) signs mean whether there is interaction or not, respectively, as demonstrated in this study; conditions: for Kd: 50 mM potassium phosphate pH 7.5, protein 70 μM in cell, peptide 900 μM, single-site model, n 0.8 to 1.1; for interaction or not with Erbin PDZ: Figure 1 summary, ITC, and DSC where ITC showed no binding
T2 construct: made in house; host or cells: Escherichia coli BL21-DE3
T2 sequence (Q96RT1 1321-1410 limits assumed): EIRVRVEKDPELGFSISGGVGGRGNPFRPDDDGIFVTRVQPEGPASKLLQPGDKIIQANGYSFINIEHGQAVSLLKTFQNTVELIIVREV
Experimental: as §1, §2, §3

PSD95-PDZ2 [4] = target: T3, PSD95-PDZ2 (Homo sapiens, UniProt P78352); experiment: ITC titration of PSD95-PDZ2 with peptides; type: binding; set-up: key to interaction or not with PSD95 PDZ2: The tick (✓) and the cross (✕) signs mean whether there is interaction or not, respectively, as demonstrated in this study; The tick (✓) and the cross (✕) signs mean whether there is interaction or not, respectively, as demonstrated in this study; conditions: for Kd: ITC, 25 °C, 50 mM potassium phosphate pH 7.5, protein 70 μM in cell, peptide 900 μM, single-site model, n 0.8 to 1.1; for interaction or not with PSD95 PDZ2: Figure 1 summary, ITC, and DSC where ITC showed no binding
T3 construct: PSD95-PDZ2 (residues 155–249, according to PSD95 numbering); made in house; host or cells: Escherichia coli BL21-DE3
T3 sequence (P78352 155-249): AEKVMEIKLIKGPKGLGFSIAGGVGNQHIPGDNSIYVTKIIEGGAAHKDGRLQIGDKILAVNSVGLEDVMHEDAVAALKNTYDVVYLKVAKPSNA
Experimental: as §1, §2, §3

nNOS-PDZ = experiment: DSC of nNOS-PDZ with and without peptides (Tm displacement); type: binding, human; set-up: key to interaction or not with nNOS PDZ: The tick (✓) and the cross (✕) signs mean whether there is interaction or not, respectively, as demonstrated in this study; The tick (✓) and the cross (✕) signs mean whether there is interaction or not, respectively, as demonstrated in this study; conditions: for ΔTm of nNOS-PDZ: DSC, PDZ:peptide 1:3, 50 mM potassium phosphate pH 7.5, nNOS-PDZ alone 55 °C; for interaction or not with nNOS PDZ: Figure 1 summary, no binding by ITC, interaction shown by DSC
Experimental: (§4) Experiments were carried out in a VP-DSC instrument from Microcal INC. as described elsewhere. The buffer conditions were the same as with ITC experiments, 50 mM buffer potassium phosphate at a pH of 7.5. For experiments including the peptides, the final concentration ratio was 1:3 (protein:peptide). Final data were obtained after treatment with ORIGIN 7.0 (OriginLab Corporation, Northampton, MA, USA, 2002).
(§5) The final ratio of PDZ:peptide was always 1:3. DSC is also a calorimetric technique but that allows finding a more subtle binding, weaker than that from ITC [33]. Undoubtedly, ITC presents greater advantages, since it gives an exhaustive characterization of the binding interaction, granting the whole thermodynamics of the system; nevertheless, if the interactions are out of the ITC range, usually when they are weak (Kd values in the mM range), it is not sensitive enough to detect binding. By contrast, DSC can detect weak binding by a displacement of the melting temperature (Tm) due to the stabilization that occurs upon binding. Essentially, when a ligand is bound to the protein, energy is needed to decouple the interacting pair before protein denaturalization. In this way, the Tm is increased and the ΔTm is proportional to the interaction energy.

PSD95-PDZ3 [5] = target: T1, PSD95-PDZ3; conditions: cited from earlier work
Text: Unfortunately, the calorimetric traces for nNOS-PDZ are highly irreversible, which prevents an analysis that would potentially yield a Kd value. Instead, we can approximately estimate a Kd range based on previous cases in PDZ binding. We have taken as a reference two PDZ-peptide interactions. Firstly, the binding of PSD95-PDZ3 with the peptide KKETAV formerly described by us. We had previously performed both ITC and DSC with PSD95-PDZ3 and KKETAV. The concentrations ...

PSD95-PDZ2 [6] = target: T3, PSD95-PDZ2; experiment: DSC of PSD95-PDZ2 with and without peptides; type: binding; conditions: PDZ:peptide 1:3, 50 mM potassium phosphate pH 7.5 (Figure S2)
Experimental: as §4, §5

| Substance | Kd (Erbin-PDZ [3]; ITC, 25 °C) [µM] | Kd (PSD95-PDZ2 [4]) [µM] | interaction or not with PSD95 PDZ3 (PSD95-PDZ3 [2]) | interaction or not with Erbin PDZ (Erbin-PDZ [3]) | interaction or not with PSD95 PDZ2 (PSD95-PDZ2 [4]) | ΔTm of nNOS-PDZ (nNOS-PDZ) [°C] | interaction or not with nNOS PDZ (nNOS-PDZ) | also measured |
| --- | --- | --- | --- | --- | --- | --- | --- | --- |
| EYLGLDVPV [ERBB2 C-terminal tail comprising 9 residues, literature value] |  |  |  |  |  |  |  | Kd (Erbin-PDZ [1]): ~50 µM |
| FRETEV [HTLV1 Tax] | 7.8 ± 0.9 | 1.5 ± 0.1 |  |  |  |  |  | Kd (PSD95-PDZ3 [2]): 3.8 ± 0.2 µM |
| GLDVPV (UniProt P04626 1250-1255, looked up, fragment) [ERBB2, six-residue C-terminal peptide of host receptor tyrosine kinase ERBB2, class II PDZ ligand] |  |  | ✕ | ✕ | ✕ | 2 | ✓ | binding to Erbin-PDZ by ITC (Erbin-PDZ [3]; ITC, 25 °C, 50 mM potassium phosphate pH 7.5): lack of binding |
| IAESSV [HTLV3 Tax] | 23 ± 9 | 20 ± 3.8 |  |  |  |  |  | Kd (PSD95-PDZ3 [2]): 43 ± 10 µM |
| KIATLV [AdV E4 ORF1] |  | 11.5 ± 0.5 |  |  |  |  |  |  |
| KKETAV |  |  |  |  |  |  |  | ΔTm of PSD95-PDZ3 (PSD95-PDZ3 [5]; DSC, PDZ:peptide 1:3): about 9 °C; Kd (PSD95-PDZ3 [5]; ITC, same concentrations as this study): 1.5 µM |
| LLDEIAV [CAPON, C-terminus of CAPON, cytoplasmic protein; class II peptide, cognate nNOS partner] |  |  | ✕ | ✕ | ✕ | 3 | ✓ |  |
| TGWETWV [Erbin PDZ binder] | 0.24 ± 0.08 | 5.7 ± 0.2 |  |  |  |  |  | ΔTm of PSD95-PDZ2 (PSD95-PDZ2 [6]): around 6 °C |
| VVKVDSV [MelR, C-terminal region of a melatonin receptor] |  |  | ✕ | ✕ | ✕ | 3 | ✓ |  |
